Key:
VEGFR-2 = VEGFR-2 (Homo sapiens, UniProt P35968); assay: In vitro VEGFR-2 tyrosine kinase inhibitory assay (Z'-LYTE, SelectScreen); format: biochemical; conditions: 10 µM single dose
Method: The target compounds were evaluated for their in vitro inhibitory activities against EGFR, VEGFR-2, and HDAC6. The EGFR and VEGFR-2 inhibitory assays were performed at Thermo Fischer Scientific, Madison, WI, USA (SelectScreenServices@thermofisher.com). The HDAC inhibitory assays were performed at BPS Bioscience, San Diego, CA, USA (www.bpsbioscience.com). Initially, all of the synthesised target compounds were evaluated for their percent inhibitory activity against EGFR, VEGFR-2, and HDACs at 10 µM single dose concentration, in which their mean percent inhibition is summarised in (Figure 5, Tables 1 and [2]). Representative compounds were evaluated for their percent inhibitory activity against EGFR and VEGFR-2 at 6 different concentrations (0.1 nM, 1 nM, 10 nM, 100 nM, 1 µM, 10 µM) to subsequently calculate their IC50 values (Table 3). Additionally, all of the synthesised target compounds were submitted to the National Cancer Institute “NCI” Bethesda, Maryland, USA (www.dtp.nci.nih.gov), to evaluate theirs in vitro antiproliferative activities against NCI 60- cancer cell line panel.
In vitro enzyme inhibition determination for the synthesised compounds was carried out in Thermo Fischer Scientific, Madison, WI, USA (SelectScreenServices@thermofisher.com). The EGFR and VEGFR-2 tyrosine kinase % inhibitory activity at a single-dose concentration of 10 µM was performed initially then representative compounds were evaluated at single-dose concentrations of (0.1 nM, 1 nM, 10 nM, 100 nM, 1 µM) using ZYLTE technology. A fluorescence-based, coupled-enzyme format is employed in the biochemical assay and depends on the sensitivity of proteolytic cleavage to non-phosphorylated and phosphorylated peptides. Then IC50 values for selected compounds were determined by GraphPad Prism at Misr international university.

VEGFR2 = conditions: Figure 3; read-out: VEGFR2 IC50; cited from earlier work
HDAC6 = target: T1, HDAC6 (Homo sapiens, UniProt Q9UBN7); assay: In vitro HDAC6 inhibitory assay (BPS Bioscience, fluorogenic); format: biochemical; conditions: read-out: % Inhibition HDAC6
T1 construct: purchased BPS Bioscience 50006
T1 sequence (Q9UBN7 1-1215): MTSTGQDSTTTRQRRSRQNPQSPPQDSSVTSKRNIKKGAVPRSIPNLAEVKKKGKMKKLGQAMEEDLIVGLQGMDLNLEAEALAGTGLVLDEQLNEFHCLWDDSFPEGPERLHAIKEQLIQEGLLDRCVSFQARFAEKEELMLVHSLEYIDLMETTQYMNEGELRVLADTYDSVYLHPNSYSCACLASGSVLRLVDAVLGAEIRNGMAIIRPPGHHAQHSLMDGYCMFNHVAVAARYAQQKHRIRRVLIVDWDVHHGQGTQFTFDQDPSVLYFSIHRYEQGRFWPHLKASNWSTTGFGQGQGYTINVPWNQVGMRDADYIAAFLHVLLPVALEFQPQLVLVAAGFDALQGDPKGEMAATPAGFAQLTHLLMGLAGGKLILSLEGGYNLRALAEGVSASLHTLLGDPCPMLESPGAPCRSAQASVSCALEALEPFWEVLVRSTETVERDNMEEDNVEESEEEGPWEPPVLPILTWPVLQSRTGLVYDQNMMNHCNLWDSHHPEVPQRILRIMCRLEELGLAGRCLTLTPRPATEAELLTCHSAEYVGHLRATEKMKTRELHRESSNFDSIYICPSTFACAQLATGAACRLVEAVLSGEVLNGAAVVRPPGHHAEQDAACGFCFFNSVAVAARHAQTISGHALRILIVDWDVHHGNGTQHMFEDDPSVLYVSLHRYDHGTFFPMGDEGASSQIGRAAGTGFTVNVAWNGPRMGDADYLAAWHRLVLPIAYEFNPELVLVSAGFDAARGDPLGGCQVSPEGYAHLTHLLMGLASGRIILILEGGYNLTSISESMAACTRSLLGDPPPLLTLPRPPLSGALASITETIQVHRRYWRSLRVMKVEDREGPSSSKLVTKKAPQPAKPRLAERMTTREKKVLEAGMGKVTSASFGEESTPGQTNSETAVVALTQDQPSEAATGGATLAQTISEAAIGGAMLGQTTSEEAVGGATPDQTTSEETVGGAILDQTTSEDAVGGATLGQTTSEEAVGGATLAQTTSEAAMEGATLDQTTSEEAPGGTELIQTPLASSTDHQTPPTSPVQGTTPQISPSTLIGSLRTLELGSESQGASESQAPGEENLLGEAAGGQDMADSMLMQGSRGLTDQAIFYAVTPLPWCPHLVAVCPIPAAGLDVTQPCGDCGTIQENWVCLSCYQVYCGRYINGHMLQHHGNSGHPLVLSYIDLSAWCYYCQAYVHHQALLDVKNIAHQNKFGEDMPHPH
Method: (1 picture or pasted object on this page, not shown here)
HDAC activity assays were performed in duplicates at each concentration. The

Hela nuclear extracts = assay: Hela nuclear extract HDAC inhibitor assay (BPS Bioscience); format: biochemical
Method: The purpose of the study is to determine the effects of twenty compounds from Misr International University on the enzymatic activities of hela nuclear extracts using an in vitro […]
7a Solution 10mM DMSO 10 10 % DMSO in
7b Solution 10mM DMSO 10 10 % DMSO in
7d Solution 10mM DMSO 10 10 % DMSO in
2.3 Experimental Conditions
2.3.1 Enzymes and Substrates
Assay Catalog # Substrate
Hela Nuclear Exctract 50053 10 µM HDAC Substrate 3
For the hela nuclear extracts, hela cells were grown to 90 % confluency. Hela nuclear extracts were prepared from the Nuclear Extraction Kit from abcam (Catalog # ab113474). The final total protein concentration was calculated to be 2.4 µg/µl. From this, the hela nuclear extracts was diluted 20-fold in HDAC assay buffer and 5 µl of the dilution was added to a 50 µl reaction.
The compounds are dissolved in DMSO. A series of dilutions of the compounds were prepared with 10% DMSO in HDAC assay buffer and 5 µl of the dilution was added to a 50 µl reaction so that the final concentration of DMSO is 1 % in all of […]
The enzymatic reactions for the hela nuclear extract were conducted in duplicate at 37 °C for 60 minutes in a 50 µl mixture containing HDAC assay buffer, 5 µg BSA, an HDAC substrate (see 2.3.1), hela nuclear extract, and a test compound (see 2.2).
After enzymatic reactions, 50μl of 2 x HDAC Developer was added to each well for the hela nuclear extract and the plate was incubated at room temperature for an additional 15 […]
Fluorescence intensity was measured at an excitation of 360 nm and an emission of 460 nm using a Tecan Infinite M1000 microplate reader.
Hela nuclear extract activity assays were performed in duplicates at each concentration.
The fluorescent intensity data were analyzed using the computer software, Graphpad Prism. In the absence of the compound, the fluorescent intensity (Ft) in each data set was defined as 100% activity. In the absence of hela nuclear extract, the fluorescent intensity (Fb) in each data set was defined as 0% activity. The percent activity in the presence of each compound was calculated according to the following equation: %activity = (F-Fb)/(Ft-Fb), where F= the fluorescent intensity in the presence of the compound.
The values of percentage activity were plotted on a bar graph.

VEGFR-2, sequence (P35968 20-1356): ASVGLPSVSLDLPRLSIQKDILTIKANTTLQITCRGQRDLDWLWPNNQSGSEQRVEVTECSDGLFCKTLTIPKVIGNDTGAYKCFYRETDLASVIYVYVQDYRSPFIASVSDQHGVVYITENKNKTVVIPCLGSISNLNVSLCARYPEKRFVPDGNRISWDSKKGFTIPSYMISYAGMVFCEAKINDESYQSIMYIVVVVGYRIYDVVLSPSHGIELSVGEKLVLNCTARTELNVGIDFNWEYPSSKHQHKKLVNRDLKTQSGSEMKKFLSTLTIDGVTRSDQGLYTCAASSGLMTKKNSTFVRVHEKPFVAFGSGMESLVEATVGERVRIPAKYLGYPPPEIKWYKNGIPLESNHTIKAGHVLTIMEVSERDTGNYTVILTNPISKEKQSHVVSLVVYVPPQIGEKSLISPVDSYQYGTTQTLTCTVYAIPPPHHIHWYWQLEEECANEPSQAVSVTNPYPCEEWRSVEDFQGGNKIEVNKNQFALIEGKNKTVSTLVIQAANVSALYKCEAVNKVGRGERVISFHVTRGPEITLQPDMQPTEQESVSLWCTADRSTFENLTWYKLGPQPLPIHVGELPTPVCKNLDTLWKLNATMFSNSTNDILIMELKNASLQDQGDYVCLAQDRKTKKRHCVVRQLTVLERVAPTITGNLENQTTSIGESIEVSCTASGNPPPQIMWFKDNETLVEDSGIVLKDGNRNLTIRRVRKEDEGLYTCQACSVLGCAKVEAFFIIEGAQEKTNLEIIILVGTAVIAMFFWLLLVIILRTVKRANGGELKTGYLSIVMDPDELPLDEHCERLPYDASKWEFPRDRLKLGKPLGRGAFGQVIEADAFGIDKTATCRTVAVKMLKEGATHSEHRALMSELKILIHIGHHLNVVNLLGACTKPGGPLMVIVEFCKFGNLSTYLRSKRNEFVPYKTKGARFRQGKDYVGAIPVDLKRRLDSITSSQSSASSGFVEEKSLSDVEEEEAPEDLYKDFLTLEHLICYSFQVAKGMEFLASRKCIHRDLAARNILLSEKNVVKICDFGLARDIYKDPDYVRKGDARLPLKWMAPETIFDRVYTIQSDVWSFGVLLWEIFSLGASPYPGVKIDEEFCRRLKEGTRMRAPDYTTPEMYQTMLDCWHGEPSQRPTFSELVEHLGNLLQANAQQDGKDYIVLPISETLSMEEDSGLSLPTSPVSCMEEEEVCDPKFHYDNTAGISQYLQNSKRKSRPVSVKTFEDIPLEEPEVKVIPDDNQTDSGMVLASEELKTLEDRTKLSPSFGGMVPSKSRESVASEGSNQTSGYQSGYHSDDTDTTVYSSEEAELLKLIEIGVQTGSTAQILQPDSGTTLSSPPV

melting point	Compound	other results
319 to 322 °C	CCOC(=O)c1sc2ncnc(Nc3ccc(NC(=O)Nc4ccccc4)cc3)c2c1C [Compound 6a, Ethyl 5-methyl-4–(4-(3-phenylureido)phenylamino)thieno[2,3-d]pyrimidine-6-carboxylate]	
220 to 222 °C	CCOC(=O)c1sc2ncnc(Nc3ccc(NC(=O)Nc4cccc(OC)c4)cc3)c2c1C [Compound 6b, Ethyl 4–(4-(3–(3-methoxyphenyl)ureido)phenylamino)-5-methylthieno[2,3-d]pyrimidine-6-carboxylate]	
305 to 307 °C	CCOC(=O)c1sc2ncnc(Nc3ccc(NC(=O)Nc4cccc(C(F)(F)F)c4)cc3)c2c1C [Compound 6c, Ethyl 4–(4-(3–(3-trifluromethyphenyl)ureido)phenylamino)-5-methylthieno[2,3-d]pyrimidine-6-carboxylate]	
173 to 175 °C	CCOC(=O)c1sc2ncnc(Nc3ccc(NC(=S)Nc4ccccc4)cc3)c2c1C [Compound 6d, Ethyl 5-methyl-4–(4-(3-phenylthioureido)phenylamino)thieno[2,3-d]pyrimidine-6-carboxylate]	
250 °C	CCOC(=O)CCNC(=O)c1sc2ncnc(Nc3ccc(NC(=O)Nc4cccc(OC)c4)cc3)c2c1C [Compound 9b, Ethyl 3–(4-(4–(3-(3-methoxyphenyl)ureido)phenylamino)-5-methylthieno[2,3-d]pyrimidine-6-carboxamido)propanoate]	
220 °C	CCOC(=O)CCNC(=O)c1sc2ncnc(Nc3ccc(NC(=O)Nc4cccc(C(F)(F)F)c4)cc3)c2c1C [Compound 9c, Ethyl 3–(5-methyl-4–(4-(3(3(trifluoromethyl)phenyl)ureido)phenylamino)thieno[2,3-d]pyrimidine-6-carboxamido)propanoate]	
219 to 221 °C	CCOC(=O)CCCNC(=O)c1sc2ncnc(Nc3ccc(NC(=O)Nc4ccccc4)cc3)c2c1C [Compound 10a, Ethyl 4–(5-methyl-4–(4-(3-phenylureido)phenylamino)thieno[2,3-d]pyrimidine-6-carboxamido)butanoate]	
197 to 199 °C	CCOC(=O)CCCNC(=O)c1sc2ncnc(Nc3ccc(NC(=O)Nc4cccc(C(F)(F)F)c4)cc3)c2c1C [Compound 10c, Ethyl 4–(5-methyl-4–(4-(3–(3(trifluoromethyl)phenyl)ureido)phenylamino)thieno[2,3-d]pyrimidine-6-carboxamido)butanoate]	
250 to 251 °C	CCOC(=O)c1sc2ncnc(Nc3ccc4[nH]cnc4c3)c2c1C [Compound 14a, Ethyl 4-(1H-benzo[d]imidazol-5-ylamino)-5-methylthieno[2,3-d]pyrimidine-6-carboxylate.]	
170 to 172 °C	CCOC(=O)c1sc2ncnc(Nc3ccccc3)c2c1C [Compound 14b, Ethyl 5-methyl-4-(phenylamino)thieno[2,3-d]pyrimidine-6-carboxylate]	
174 to 176 °C	CCOC(=O)c1sc2ncnc(Nc3ccc(Cl)cc3)c2c1C [Compound 14c, Ethyl 4–(4-chlorophenylamino)-5-methylthieno[2,3-d]pyrimidine-6-carboxylate]	
154 to 156 °C	CCOC(=O)c1sc2ncnc(Nc3ccc(F)c(Cl)c3)c2c1C [Compound 14d, Ethyl 4–(3-chloro-4-fluorophenylamino)-5-methylthieno[2,3-d]pyrimidine-6-carboxylate]	
206 °C	CCOC(=O)CCNC(=O)c1sc2ncnc(Nc3ccccc3)c2c1C [Compound 17b, Ethyl 3–(5-methyl-4-(phenylamino)thieno[2,3-d]pyrimidine-6-carboxamido)propanoate]	
202 °C	CCOC(=O)CCNC(=O)c1sc2ncnc(Nc3ccc(Cl)cc3)c2c1C [Compound 17c]	inhibition at 10 µM (VEGFR-2): 87%
184 °C	CCOC(=O)CCNC(=O)c1sc2ncnc(Nc3ccc(F)c(Cl)c3)c2c1C [Compound 17d, Ethyl 3–(4-(3-chloro-4-fluorophenylamino)-5-methylthieno[2,3-d]pyrimidine-6-carboxamido)propanoate]	
145 to 147 °C	CCOC(=O)CCCNC(=O)c1sc2ncnc(Nc3ccccc3)c2c1C [Compound 18b, Ethyl 4–(5-methyl-4-(phenylamino)thieno[2,3-d]pyrimidine-6-carboxamido)butanoate]	
138 °C	CCOC(=O)CCCNC(=O)c1sc2ncnc(Nc3ccc(Cl)cc3)c2c1C [Compound 18c, Ethyl 4–(4-(4-chlorophenylamino)-5-methylthieno[2,3-d]pyrimidine-6-carboxamido)butanoate]	
131 to 133 °C	CCOC(=O)CCCNC(=O)c1sc2ncnc(Nc3ccc(F)c(Cl)c3)c2c1C [Compound 18d, Ethyl 4–(4-(3-chloro-4-fluorophenylamino)-5-methylthieno[2,3-d]pyrimidine-6-carboxamido)butanoate]	
	Clc1ccc(Oc2ncnc3sc4c(c23)CCCCC4)cc1 [Compound D]	IC50 (VEGFR2): 0.34 µM
	CC(C=CC(=O)NO)=CC(C)C(=O)c1ccc(N(C)C)cc1 (centres unmarked) [TSA, reference compound]	inhibition at 0.0005 µM (HDAC6): 23%; inhibition at 0.005 µM (HDAC6): 73%; inhibition at 0.05 µM (HDAC6): 95%; % Inhibition Hela Nuclear Extracts (Hela nuclear extracts; 0.0003 µM (printed 0.0003 M)): 7%; % Inhibition Hela Nuclear Extracts (Hela nuclear extracts; 0.003 µM (printed 0.003 M)): 46%; % Inhibition Hela Nuclear Extracts (Hela nuclear extracts; 0.03 µM (printed 0.03 M)): 88%
